Here are results for 1 molecule from patent US20110009474A1, “SIRTUIN BASED METHODS AND COMPOSITIONS FOR TREATING BETA-CATENIN-RELATED CONDITIONS” (President and Fellows of Harvard College, priority 2007, published 2011).

The structures appear in SMILES notation.

The subject of the experiment is β-catenin transcriptional activity (pTOPFLASH reporter) in 293T cells. As to the kind of experiment: TOPFLASH β-catenin luciferase reporter assay in transfected 293T cells. It counts as cell-based, human. Particulars: NAM added eight hours after transfection, harvested 24 h post-transfection, normalized to Renilla luciferase, FIG. 4F. In general terms: Reporter assays use an easily measured gene product as a stand-in for the process of interest.

In the case of `NC(=O)c1cccnc1` [nicotinamide], the “luciferase reporter activity (pTOPFLASH β-catenin reporter)” value is listed as “increased luciferase reporter activity”.
